Results published in US5491149A, “Dihydroxypropylamine containing retroviral protease inhibitors” (The Du Pont Merck Pharmaceutical Company, priority 1994, dated 1996).
Converted amounts (≈) assume the structure as drawn.

Key:
HIV protease = molecular target: T1, HIV protease (Human immunodeficiency virus type 1 group M subtype B, UniProt P04585); assay: Cell Free HIV Protease Inhibition Assay (gag polyprotein); assay type: biochemical; conditions: HIV gag polyprotein substrate, 30° C.
T1 construct: plasmid containing HIV protease under the control of the T7 promotor; made in house; host or cells: E. coli (crude lysate, lac promoter)
Source text: Procedure III: Cell Free Protease Inhibition Assay Materials:
HIV gag polyprotein corresponding to all of p17 and 78 amino acids of p24, produced by in vitro translation using rabbit reticulocyte lysate and mRNA prepared in vitro from plasmid encoding full length gag polyprotein linerized with the restriction enzyme Pst 1. (see S. Erickson-Viitanen et al., AIDS Research and Human Retroviruses, 5 (6), 577 (1989) for plasmid construction, and basis for assay).
Source of protease: Either (A) crude E. coli lysate of bacteria harboring a plasmid containing HIV protease under the control of the lac promotor, used at a final concentration of 0.5 mg/ml, or (B) inclusion bodies of E. coli harboring plasmid containing HIV protease under the control of the T7 promotor (Cheng et al., Gene, in press (1990)). Such inclusion bodies were solubilized in 8M urea, 50 mM Tris pH 8.0. Protease activity was recovered by dilution of the inclusion bodies 20-fold in buffer containing 50 mM Sodium Acetate, pH 5.5, 1 mM EDTA, 10% glycerol and 5% ethylene glycol. This protease source was used at a final concentration of 0.00875 mg/ml.
Inhibitory compounds were dissolved in sufficient DMSO to make a 2.5 mM stock concentration. All further dilutions were done in DMSO.
Into sterile test tubes were placed the following:
14 ul HIV protease in Phosphate Buffered Saline (20 mM Sodium Phosphate, 0.15M NaCl, pH 6.5).
5 μl of in vitro translation products.
Reactions were incubated at 30° C., then quenched by the addition of Sample buffer. See U. K. Laemmli, Nature, 1970, 227:680-685.
One fourth of each sample was analyzed on an 8-16% gradient denaturing acrylamide gel (Novex, Inc), according to Laemmli. Following electrophoresis, gels were fixed, impregnated with Enhance (Du Pont NEN, Boston, Mass.) and dried according to manufacturers instructions (NEN). Dried fluorographs were exposed to film and/or quantitated using an Ambis radioanalytic scanner.
Each group of test compounds was compared to the values obtained for pepstatin, a well known inhibitor of acid proteases . Inhibitory concentration for 50% inhibition (IC50) is determined from plots of log concentration inhibitor versus % inhibition of protease activity.
Biological Activity: IC50 is the concentration necessary for reducing the activity of the enzyme by 50%.

[1] = system: HIV(3B) or HIV(RF) in MT-2 human T-cells; assay: HIV Low Multiplicity Assay (XTT, MT-2 cells); assay type: cell-based; conditions: Human immunodeficiency virus 1, MT2, 168 h, 90% protection, multiplicity of infection 0.01, 7 days
Description: HIV Low Multiplicity Assby
MT-2, a human T-cell line, was cultured in RPMI medium supplemented with 5% (v/v) heat inactivated fetal calf serum (FCS), L-glutamine and gentamycin (GIBCO). Human immunodeficiency virus strains HIV(3B) and HIV(Rf) were propagated in H-9 cells in RPMI with 5% FCS. XTT, benzene-sulfonic acid, 3,3'-[1-[(phenylamino)carbonyl]-3,4-tetrazolium]bis(4-methoxy-6-nitro)-, sodium salt, was obtained from Starks Associates, Inc.
Test compounds were dissolved in dimethyl-sulfoxide to 5 mg/ml and serially diluted into RPMI medium to ten times the desired final concentration. MT-2 cells (5×10^4 /0.1 ml) were added to each well of a 96 well culture plate and 0.02 ml of the appropriate test compound solution was added to the cells such that each compound concentration was present in two wells. The cells and compounds were allowed to sit for 30 minutes at room temperature. HIV(3B) or HIV(RF) (~5×10^5 plaque forming units/ml) was diluted in medium and added to the cell and compound mixtures to give a multiplicity of infection of 0.01 plaque forming unit/cell. The mixtures were incubated for 7 days at 36° C., during which time the virus replicated and caused the death of unprotected cells. The percentage of cells protected from virus induced cell death was determined by the degree of metabolism of the tetrazolium dye, XTT. In living cells, XTT was metabolized to a colored formazan product which was quantitated spectrophotometrically at 450 nm. The amount of colored formazan was proportional to the number of cells protected from virus by the test compound. The concentration of compound protecting either 50% (IC50) or 90% (IC90) with respect to an uninfected cell culture was determined.

SMILES	IC50 (HIV protease) [nM]	IC90 [1] [µg/mL]
CC(C)(C)NC(=O)[C@@H]1C[C@@H]2CCCC[C@@H]2CN1C[C@@H](O)[C@H](O)[C@H](Cc1ccccc1)NC(=O)[C@H](CC(N)=O)NC(=O)c1ccc2ccccc2n1 [Example 9, [3S-[2[1R*(R*),2S*,3S*],3a,4ab,8ab]]-N1-[4-[3-[[(1,1-dimethylethyl)amino]carbonyl]octahydro-2(1H)-isoquinolinyl]-2,3-dihydroxy-1-(phenylmethyl)butyl]-2-[(2-quinolinylcarbonyl)amino]butanediamide]	> 17800	3 (≈ 4.28 µM)
CC(C)(C)NC(=O)[C@@H]1C[C@@H]2CCCC[C@@H]2CN1C[C@H](O)[C@H](O)[C@H](Cc1ccccc1)NC(=O)[C@H](CC(N)=O)NC(=O)OCc1ccccc1 [Example 5, [3S-[2[1R*(R*),2S*,3R*],3a,4ab,8ab]]-(phenylmethyl)[3-amino-1-[[[4-[3-[[(1,1-dimethylethyl)amino]carbonyl]octahydro-2(1H)-isoquinolinyl]-2,3-dihydroxy-1-(phenylmethyl)butyl]amino]carbonyl]-3-oxopropyl]carbamate]	> 18400	> 30
CC(C)(C)NC(=O)[C@@H]1C[C@@H]2CCCC[C@@H]2CN1C[C@@H](O)[C@H](O)[C@H](Cc1ccccc1)NC(=O)[C@H](CC(N)=O)NC(=O)OCc1ccccc1 [Example 8, [3S-[2[1R*(R*),2S*,3S*],3a,4ab,8ab]]-(phenylmethyl)[3-amino-1-[[[4-[3-[[(1,1-dimethylethyl)amino]carbonyl]octahydro-2(1H)-isoquinolinyl-2,3-dihydroxy-1-(phenylmethyl)butyl]amino]carbonyl]-3-oxopropyl]carbamate]	> 18400	> 30
CC(C)(C)NC(=O)[C@@H]1C[C@@H]2CCCC[C@@H]2CN1C[C@@H](O)[C@@H](O)[C@H](Cc1ccccc1)NC(=O)[C@H](CC(N)=O)NC(=O)OCc1ccccc1 [Example 1, [3S-[2[1R*(R*),2R*,3S*],3a,4ab,8ab]]-(phenylmethyl)[3-amino-1-[[[4-[3-[[(1,1-dimethylethyl)amino]carbonyl]octahydro-2(1H)-isoquinolinyl]-2,3-dihydroxy-1(phenylmethyl)butyl]amino]carbonyl]-3-oxopropyl]carbamate]	3020	2 (≈ 2.94 µM)
CC(C)(C)NC(=O)[C@@H]1C[C@@H]2CCCC[C@@H]2CN1C[C@H](O)[C@H](O)[C@H](Cc1ccccc1)NC(=O)[C@H](CC(N)=O)NC(=O)c1ccc2ccccc2n1 [Example 6, [3S-[2[1R*(R*),2S*,3R*],3a,4ab,8ab]]-N1-[4-[3-[[(1,1-dimethylethyl)amino]carbonyl]octahydro-2(1H)-isoquinolinyl]-2,3-dihydroxy-1-(phenylmethyl)butyl]-2-[(2-quinolinylcarbonyl)amino]butanediamide]	> 17800	10 (≈ 14.3 µM)

More lines, in order of falling IC50 (HIV protease), values ahead:

IC50 (HIV protease) [nM]	IC90 [1] [µg/mL]	SMILES
2930	1 (≈ 1.47 µM)	CC[C@H](C)[C@H](NC(=O)OCc1ccccc1)C(=O)N[C@@H](Cc1ccccc1)[C@H](O)[C@H](O)CN1C[C@H]2CCCC[C@H]2C[C@H]1C(=O)NC(C)(C)C [Example 4, [3S-[2[1R*(R*,R*),2R*,3S*],3a,4ab,8ab]]-(phenylmethyl)[1-[[[4-[3-[[(1,1-dimethylethyl)amino]carbonyl]octahydro-2(1H)-isoquinolinyl]-2,3-dihydroxy-1-(phenylmethyl)butyl]amino]carbonyl]-2-methylbutyl]carbamate]
2840	2.2 (≈ 3.14 µM)	CC(C)(C)NC(=O)[C@@H]1C[C@@H]2CCCC[C@@H]2CN1C[C@H](O)[C@@H](O)[C@H](Cc1ccccc1)NC(=O)[C@H](CC(N)=O)NC(=O)c1ccc2ccccc2n1 [Example 7, [3S-[2[1R*(R*),2R*,3R*],3a,4ab,8ab]]-N1-[4-[3-[[(1,1-dimethylethyl)amino]carbonyl]octahydro-2(1H)-isoquinolinyl]-2,3-dihydroxy-1-(phenylmethyl)butyl]-2-[(2-quinolinylcarbonyl)amino]butanediamide]
2110	1.7 (≈ 2.56 µM)	CC(C)[C@H](NC(=O)OCc1ccccc1)C(=O)N[C@@H](Cc1ccccc1)[C@H](O)[C@H](O)CN1C[C@H]2CCCC[C@H]2C[C@H]1C(=O)NC(C)(C)C (relative stereo) [Example 3, [3-[2[1R*(R*),2R*,3S*],3a,4ab,8ab]]-(phenylmethyl)[1-[[[4-[3-[[(1,1-dimethylethyl)amino]carbonyl]octahydro-2(1H)-isoquinolinyl-2,3-dihydroxy-1-(phenylmethyl)butyl]amino]carbonyl]-2-methylpropyl]carbamate]
542	0.3 (≈ 0.428 µM)	CC(C)(C)NC(=O)[C@@H]1C[C@@H]2CCCC[C@@H]2CN1C[C@@H](O)[C@@H](O)[C@H](Cc1ccccc1)NC(=O)[C@H](CC(N)=O)NC(=O)c1ccc2ccccc2n1 [Example 2, [3S-[2[1R*(R*),2R*,3S*],3a,4ab,8b]]-N1-[4-[3-[[(1,1-dimethylethyl)amino]carbonyl]octahydro-2(1H)-isoquinolinyl]-2,3-dihydroxy-1-(phenylmethyl)butyl]-2-[(2-quinolinylcarbonyl)amino]butanediamide]
